Results taken from paper PMC7915588, “Polyphyllin D Shows Anticancer Effect through a Selective Inhibition of Src Homology Region 2-Containing Protein Tyrosine Phosphatase-2 (SHP2)” (Molecules, 2021).

Experiments:
Experiment in all cases: biochemical
Parameters in all cases: Fluorogenic phosphatase assay, DiFMUP hydrolysis by recombinant PTPs, initial velocity, Ex/Em 355/460 nm
Conditions in all cases: read-out: Inhibition by 20 µM polyphyllin D (%)
PTPN12 (PTP-PEST) = target: T1, PTPN12 (PTP-PEST) (Homo sapiens, UniProt Q05209)
T1 construct: 1-334
T1 sequence (Q05209 1-780): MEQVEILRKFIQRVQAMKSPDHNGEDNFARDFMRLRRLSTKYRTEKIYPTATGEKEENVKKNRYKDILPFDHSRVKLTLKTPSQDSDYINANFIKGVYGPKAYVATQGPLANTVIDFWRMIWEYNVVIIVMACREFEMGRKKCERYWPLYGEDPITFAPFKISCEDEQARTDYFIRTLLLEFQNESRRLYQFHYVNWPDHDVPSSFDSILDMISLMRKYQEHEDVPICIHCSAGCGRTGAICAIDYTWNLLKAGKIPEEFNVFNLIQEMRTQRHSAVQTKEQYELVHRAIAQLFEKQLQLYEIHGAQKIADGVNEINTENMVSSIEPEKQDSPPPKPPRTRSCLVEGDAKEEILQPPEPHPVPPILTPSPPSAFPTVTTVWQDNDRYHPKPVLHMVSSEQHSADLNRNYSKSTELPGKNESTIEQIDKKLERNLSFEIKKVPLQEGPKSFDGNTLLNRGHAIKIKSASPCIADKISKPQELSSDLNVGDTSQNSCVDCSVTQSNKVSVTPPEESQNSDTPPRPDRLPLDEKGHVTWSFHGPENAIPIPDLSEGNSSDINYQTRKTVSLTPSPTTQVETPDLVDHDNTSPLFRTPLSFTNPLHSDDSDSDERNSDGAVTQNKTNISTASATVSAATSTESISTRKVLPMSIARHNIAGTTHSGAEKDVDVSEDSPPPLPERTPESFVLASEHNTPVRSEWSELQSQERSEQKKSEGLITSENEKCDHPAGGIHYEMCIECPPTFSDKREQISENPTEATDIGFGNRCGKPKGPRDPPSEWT
Protocol: (§1) Enzymatic reactions were initiated by the addition of SHP2 (final concentration of 10 nM) to a solution of each of the 658 phytochemical compounds (final concentration of 20 µM) in reaction buffer (20 mM bis-tris pH 6.0, 150 mM NaCl, 2.5 mM dithiothreitol, and 0.01% Triton X-100) containing DiFMUP (final concentration of 140 µM). Changes in the fluorescence intensities were measured continuously for 10 min at Ex/Em = 355/460 nm on a VictorTM X4 multilabel plate reader. Enzyme inhibition was estimated by comparing the reaction velocity in the presence of each compound with that in the absence of any compound. Inhibition of the other PTPs was measured in the same way. Next, we established a screening strategy using a DiFMUP substrate to identify a natural product that inhibits SHP2 activity. Initially, we screened 658 compounds at 20 µM using a 96-well plate system (Figure 2A). […] The selected compounds were tested at 20 µM for SHP2 inhibition, and 14 additional non-receptor-type PTPs (PTP1B, TCPTP, PTPH1, STEP, SHP1, HePTP, PTP-MEG2, PTP-PEST, PTP-BAS, PTP36, PTP-HSCF, PTPD1, LYP, and HD-PTP) were used to investigate the inhibition selectivity. The results were visualized using a heat map analysis by GraphPad Prism (Figure 2B and Table S2 in Supplementary Materials). To identify new SHP2 anticancer natural products, we first performed cloning to express SHP2 protein and then purified it. PTPN11 (Gene ID: 5781) encoding human SHP2 (amino acids sequences 1 to 526) with several extra amino acids were cloned into the MBP-pET 28a (+) vector, which was successfully used to overexpress PTPs with enhanced solubility in an Escherichia coli expression system. Information on amino acids for 15 non-receptor-type PTPs including SHP2 is summarized in Table S3 in the Supplementary Materials. SHP2 was overexpressed in RosettaTM (DE3) and purified using a metal affinity resin (Figure S1 in Supplementary Materials). […] The kcat, KM, and kcat/KM values were determined to be 270 min^−1, 70 μM, and 3.9 μM^−1min^−1, respectively, using the Lineweaver–Burk plot analysis (Table S1 in Supplementary Materials).

PTPN2 (TCPTP) = target: T2, PTPN2 (TCPTP) (Homo sapiens, UniProt P17706)
T2 construct: 1-387
T2 sequence (P17706 1-415): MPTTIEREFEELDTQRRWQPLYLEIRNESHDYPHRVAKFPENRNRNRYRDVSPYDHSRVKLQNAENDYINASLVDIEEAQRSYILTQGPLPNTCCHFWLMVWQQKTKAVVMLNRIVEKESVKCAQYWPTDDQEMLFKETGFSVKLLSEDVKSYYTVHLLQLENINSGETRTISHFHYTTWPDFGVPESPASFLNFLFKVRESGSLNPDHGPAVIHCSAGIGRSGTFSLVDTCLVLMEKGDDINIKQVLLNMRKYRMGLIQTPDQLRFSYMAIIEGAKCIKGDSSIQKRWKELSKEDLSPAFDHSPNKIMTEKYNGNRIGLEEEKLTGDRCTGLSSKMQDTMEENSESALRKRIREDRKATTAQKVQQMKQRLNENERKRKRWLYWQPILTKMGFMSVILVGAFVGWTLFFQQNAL
Protocol: as §1

PTPN5 (STEP) = target: T3, PTPN5 (STEP) (Homo sapiens, UniProt P54829)
T3 construct: 313-565
T3 sequence (P54829 1-565): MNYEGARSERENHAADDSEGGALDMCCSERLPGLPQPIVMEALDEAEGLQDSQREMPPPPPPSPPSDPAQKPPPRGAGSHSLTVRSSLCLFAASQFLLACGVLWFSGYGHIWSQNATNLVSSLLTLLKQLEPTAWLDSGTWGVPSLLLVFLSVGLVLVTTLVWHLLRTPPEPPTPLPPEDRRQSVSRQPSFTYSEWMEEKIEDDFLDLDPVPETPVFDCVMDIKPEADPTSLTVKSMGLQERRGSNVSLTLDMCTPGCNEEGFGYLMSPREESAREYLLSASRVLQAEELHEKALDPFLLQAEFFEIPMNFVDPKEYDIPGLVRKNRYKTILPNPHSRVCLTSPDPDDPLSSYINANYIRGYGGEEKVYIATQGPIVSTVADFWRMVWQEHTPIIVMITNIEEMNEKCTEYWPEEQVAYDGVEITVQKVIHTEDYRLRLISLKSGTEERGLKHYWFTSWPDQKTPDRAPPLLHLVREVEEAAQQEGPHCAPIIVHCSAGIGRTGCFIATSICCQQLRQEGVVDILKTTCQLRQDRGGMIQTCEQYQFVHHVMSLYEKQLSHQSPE
Protocol: as §1

Compound: C[C@@H]1CC[C@@]2(OC1)O[C@H]1C[C@H]3[C@@H]4CC=C5C[C@@H](O[C@@H]6O[C@H](CO)[C@@H](O[C@@H]7O[C@@H](CO)[C@H](O)[C@H]7O)[C@H](O)[C@H]6O[C@@H]6O[C@@H](C)[C@H](O)[C@@H](O)[C@H]6O)CC[C@]5(C)[C@H]4CC[C@]3(C)[C@H]1[C@@H]2C [polyphyllin D]
- inhibition at 20 µM (PTPN12 (PTP-PEST)): 29.9%
- inhibition at 20 µM (PTPN2 (TCPTP)): 7.5%
- inhibition at 20 µM (PTPN5 (STEP)): 0%
